Assay results from patent publication US11958812B2, “3, 5-disubstituted pyridine and 3, 5-disubstituted pyridazine derivatives and pharmaceutical use of same” (MITSUBISHI TANABE PHARMA CORPORATION, priority 2018, dated 2024).

Columns and labels:
[1] = system: Macaca fascicularis laser-induced high intraocular pressure model; assay: Macaca fascicularis laser-induced high intraocular pressure model; type: in vivo; conditions: left eye with high intraocular pressure
Protocol: [Study of Action of ATX Inhibitor on Macaca fascicularis Intraocular Pressure]
The efficacy of ATX inhibitor (Example 5, hereinafter indicated as in example 5 in the Figures) for Macaca fascicularis laser-induced high intraocular pressure model was evaluated using the intraocular pressure lowering action as an index.
A green laser beam at wavelength 532 nm was uniformly irradiated to 360° around of the trabecular meshwork, which is the excretory passage of the aqueous humor, of the left eye alone, whereby high intraocular pressure was induced. The right eye was maintained normal. […]
The required amount of ATX inhibitor (Example 5) was weighed, transferred to an agate mortar and lightly ground. […] The oral vehicle was added to increase the amount and the pH was confirmed to be not exceeding 11.0 (measured value: pH10.55-10.88).
A 0.04 mol/L boric acid/phosphoric acid/acetic acid mixed solution (307 mL) was mixed with a 0.2 mol/L aqueous sodium hydroxide solution (193 mL) (pH about 8.4), pH was adjusted to 8.5 with 1 mol/L hydrochloric acid to prepare Britton-Robinson buffer (pH 8.5). […] 4.5 mg of ATX inhibitor (Example 5) was measured in a 10 mL measuring flask, the instillation administration vehicle (9.6 mL) was added and the mixture was sonicated for 30 min in an ultrasonication washing machine set to about 40° C. […]

[2] = molecular target: human recombinant ATX (Homo sapiens, UniProt Q13822); assay: Enzyme inhibition test (choline release from LPC, Amplex UltraRed fluorescence); type: biochemical; conditions: 200 μM LPC substrate, 1 hr at room temperature, read-out: Experimental Example 1 human ATX IC50
Summary of the method: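 Recombinant human ATX (enzyme solution 0.4 ng/µL) acted on a mix of 200 µM LPC, Amplex UltraRed, peroxidase and choline oxidase in Tris pH 8.0 buffer with BSA and 0.0025% Triton X-100, 1 h at room temperature. Choline was read by fluorescence (Ex 525/Em 598 nm) against a choline chloride standard. IC50 came from % inhibition relative to enzyme-free and inhibitor-free controls.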

IC50 [2]: 1 nM
Compound: COc1ccc(-c2cnnc(OC[C@H]3CC[C@H](C(F)(F)F)CC3)c2)nc1[C@H]1C[C@@H]1C(=O)O [Example 5, (1S,2S)-2-[3-methoxy-6-(6-{[trans-4-(trifluoromethyl)cyclohexyl]methoxy}pyridazin-4-yl)pyridin-2-yl]cyclopropanecarboxylic Acid]
intraocular pressure lowering action, single instillation administration ([1]; instillation, 0.0135 mg/eye, FIG. 8): statistically significant intraocular pressure lowering action | intraocular pressure lowering action, single oral administration ([1]; oral, 100 mg/kg, FIG. 7): statistically significant intraocular pressure lowering action
